What was measured:
[1] = tested on: production of PGF2α in human pulmonary adenocarcinoma cell line A549; experiment: Inhibition of PGF2α production in IL-1β-stimulated A549 cells (EIA); format: cell-based; details: for IC50: IL-1β stimulated, read-out: pIC50 PGF2α (converted)
Description: (§1) The test used makes it possible to evaluate the inhibitory capacity of the test compounds on the production of PGE2 and the selectivity relative to the production of PGF2α. The human pulmonary adenocarcinoma cell line A549 was used, which is particularly sensitive to stimulation with proinflammatory cytokines, for instance IL-1β, and, in response to this stimulation, is particularly active in the production and release of two prostanoids: PGE2 and PGF2α (Thoren S. Jakobsson P-J, 2000).
(§2) The cells were stimulated with IL-1β (10 ng/ml) and simultaneously treated with the test compound for 22 hours in a suitable culture medium (DMEM Dulbecco's Modified Eagles Medium) enriched with 5% fetal calf serum and L-glutamine (4 mM final) in an incubator at 37° C. and with a CO2 concentration of 5%.
(§3) At the end of the incubation, the amount of PGE2 and PGF2α produced and released into the supernatant were assayed using an EIA kit (produced and sold by Cayman Chemicals, Ann Arbor, Mich., USA).
(§4) The comparative compound used was indomethacin at a concentration of 10 nM (Sigma-Aldrich), which is a non-steroidal anti-inflammatory drug that inhibits in equal measure both PGE2 and PGF2α.
(§5) For illustrative purposes, Table 3 collates the pIC50 values of a number of compounds of the invention, where pIC50 represents the negative logarithm of the IC50, which, in turn, represents the concentration of compound that inhibits the production of PGE2 or PGF2α by 50% relative to cells that are stimulated but not treated with the same compound.

[2] = tested on: production of PGE2 in human pulmonary adenocarcinoma cell line A549 (mPGES-1); experiment: Inhibition of PGE2 production in IL-1β-stimulated A549 cells (EIA); format: cell-based; details: for IC50: IL-1β stimulated, read-out: pIC50 PGE2 (converted)
Description: as §1, §2, §3, §4, §5

[3] = tested on: acetic acid-induced stretching in mice; experiment: Acetic acid-induced stretching in mice; format: in vivo; details: female CD-1 mice; for N° of stretches: 20 minutes after acetic acid; for % inhibition (stretches): vs vehicle (MTC)
Experimental: The test compound was evaluated in the model of acetic acid-induced stretching in mice (Stock J. L. et al., J Clin Inv 2001, 107: 325-331). This test makes it possible to evaluate the antinociceptive activity of the compounds of the invention in a model of inflammatory pain.
Female CD-1 mice weighing 25-30 g were used for the test. […] The control animals were treated with the vehicle alone (MTC) via the same route.
30 minutes after the treatment, the animals received an intraperitoneal injection of acetic acid (0.7 v/v in physiological solution, 16 μl/g of body weight) in order to induce inflammatory pain and to check the effects of the test compound on the nociceptive response.
Immediately after the administration of acetic acid and for the following 20 minutes, the number of stretches, which represents the parameter for evaluation of the nociceptive response, was measured.

[4] = tested on: production of PGE2 in human lymphoma cell line U-937 (cPGES); experiment: Inhibition of PGE2 production in U-937 cells (selectivity between isoforms of PGES); format: cell-based; details: basal conditions
Description: The test used makes it possible to evaluate the capacity of the compounds of the invention to inhibit the production of PGE2 in a human lymphoma cell line U-937 that preferentially expresses an enzymatic isoform (cPGES), which is responsible for the production of PGE2 under basal conditions, in the absence of pro-inflammatory stimuli. This enzymatic form is different from the one predominantly expressed in the A549 cells (mPGES-1) after a pro-inflammatory stimulus.
The absence of inhibitory activity on PGE2 in this cell model ensures the selectivity of the compound compared with the enzymatic form responsible for the production of PGE2 in the presence of inflammatory stimuli.
The reference compound used was indomethacin at a concentration of 10 nM.

[5] = 10 nM, IL-1β 10 ng/ml, 22 hours

Row | SMILES | inhibition at 10 µM ([1]; IL-1β 10 ng/ml, 22 hours) [%] | inhibition at 10 µM ([2]; IL-1β 10 ng/ml, 22 hours) [%] | IC50 [2] [µM] | further results
1 | CCn1c(-c2ccc(C)cc2)cc2cc(NC(=O)c3ccccc3Cl)cnc21 [Compound 1] | < 20 | 59 | – | –
2 | CCOC(=O)CCCn1c(-c2ccccc2)cc2cc(NC(=O)c3ccccc3Cl)ccc21 [Compound 7] | < 20 | 76 | 3.98 | –
3 | CCn1c(C2CCCCC2)cc2cc(NC(=O)c3ccccc3Cl)ccc21 [Compound 10] | < 20 | 78 | 1.58 | N° of stretches ([3]; 0.01 mg/kg intraperitoneally): 47 ± 4.3; % inhibition (stretches) ([3]; 0.01 mg/kg intraperitoneally): 5.9 ± 8.76%; N° of stretches ([3]; 0.1 mg/kg intraperitoneally): 34 ± 3.2; % inhibition (stretches) ([3]; 0.1 mg/kg intraperitoneally): 33.2 ± 6.16%; N° of stretches ([3]; 1 mg/kg intraperitoneally): 33 ± 3.9; % inhibition (stretches) ([3]; 1 mg/kg intraperitoneally): 33.6 ± 8.04%; N° of stretches ([3]; 10 mg/kg intraperitoneally): 21 ± 3.2; % inhibition (stretches) ([3]; 10 mg/kg intraperitoneally): 57.5 ± 6.57%; inhibition at 10 µM [4]: < 20%
4 | COCCn1c(-c2ccccc2)cc2cc(NC(=O)c3ccccc3Cl)ccc21 [Compound 12] | < 20 | 78 | 3.16 | inhibition at 10 µM [4]: < 20%
5 | CC(=O)OCCCn1c(-c2ccccc2)cc2cc(NC(=O)c3ccccc3Cl)ccc21 [Compound 13] | < 20 | 61 | 7.94 | inhibition at 10 µM [4]: < 20%
6 | CS(=O)(=O)n1c(CCc2ccccc2)cc2cc(NC(=O)c3ccccc3Cl)ccc21 [Compound 21] | < 20 | 69 | 0.501 | –
7 | CS(=O)(=O)n1c(-c2cccc(C(F)(F)F)c2)cc2cc(NC(=O)c3ccccc3Cl)ccc21 [Compound 22] | 44 | 94 | 1.58 | IC50 [1]: 25.1 µM; inhibition at 10 µM [4]: < 20%
8 | CCn1c(CCc2ccccc2)cc2cc(NC(=O)c3ccccc3Cl)ccc21 [Compound 33] | < 20 | 41 | – | –
9 | CCn1c(Cc2ccccc2)cc2cc(NC(=O)c3ccccc3Cl)ccc21 [Compound 34] | 44 | 83 | 2.51 | –
10 | O=C(Nc1ccc2c(c1)cc(C(=O)Nc1ccccc1)n2CCCO)c1ccccc1C(F)(F)F [Compound 35] | 13 | 88 | 2.51 | IC50 [1]: 31.6 µM
11 | O=C(Nc1ccc2c(c1)cc(-c1ccc(F)cc1)n2CCO)c1c(Cl)cccc1Cl [Compound 36] | < 20 | 40 | 50.1 | –
12 | O=C(Nc1ccc2c(c1)cc(-c1ccc(Cl)cc1)n2CCO)c1ccc(F)cc1C(F)(F)F [Compound 37] | < 20 | 73 | 6.31 | –
13 | O=C(Nc1ccc2c(c1)cc(-c1ccc(F)cc1)n2CCO)c1c(F)cccc1C(F)(F)F [Compound 38] | < 20 | 42 | 25.1 | –
14 | COc1ccc2c(c1)c(CC(=O)O)c(C)n2C(=O)c1ccc(Cl)cc1 [Indomethacin, indomethacin, reference compound] | – | – | 0.00501 | inhibition at 0.01 µM [1, 5]: 100%; IC50 [1]: 0.00251 µM; inhibition at 0.01 µM [2, 5]: 100%; inhibition at 0.01 µM ([4]; 10 nM): 100%

— US8871948B2, “(Aza)indole derivative substituted in position 5, pharmaceutical composition comprising it, intermediate compounds and preparation process therefor” (Aziende Chimiche Riunite Angelini Francesco A.C.R.A.F.S.p.A., priority 2007, dated 2014)
